Experimental data reported in US20250230138A1, “COMPOUNDS HAVING A T-STRUCTURE FORMED BY AT LEAST FOUR CYCLES FOR USE IN THE TREATMENT OF CANCER AND OTHER INDICATIONS” (TheRas, Inc., priority 2022, published 2025).
pIC50: −log10 of the molar value. Like-named read-outs stand apart in the source and are kept apart here.

What was measured:
[1] = biological target: KRAS-PI3Kα interaction (KRAS-Q25A binding to avi-tagged full length PI3Kα) (Homo sapiens (Human), UniProt P42336); experiment: Disrupting KRAS-PI3Kα interaction by SPR inhibition assay; conditions: KRAS-Q25A at 20 μM, 25° C.
KRAS-PI3Kα interaction (KRAS-Q25A binding to avi-tagged full length PI3Kα), sequence (P42336 whole entry, looked up, stated change not applied): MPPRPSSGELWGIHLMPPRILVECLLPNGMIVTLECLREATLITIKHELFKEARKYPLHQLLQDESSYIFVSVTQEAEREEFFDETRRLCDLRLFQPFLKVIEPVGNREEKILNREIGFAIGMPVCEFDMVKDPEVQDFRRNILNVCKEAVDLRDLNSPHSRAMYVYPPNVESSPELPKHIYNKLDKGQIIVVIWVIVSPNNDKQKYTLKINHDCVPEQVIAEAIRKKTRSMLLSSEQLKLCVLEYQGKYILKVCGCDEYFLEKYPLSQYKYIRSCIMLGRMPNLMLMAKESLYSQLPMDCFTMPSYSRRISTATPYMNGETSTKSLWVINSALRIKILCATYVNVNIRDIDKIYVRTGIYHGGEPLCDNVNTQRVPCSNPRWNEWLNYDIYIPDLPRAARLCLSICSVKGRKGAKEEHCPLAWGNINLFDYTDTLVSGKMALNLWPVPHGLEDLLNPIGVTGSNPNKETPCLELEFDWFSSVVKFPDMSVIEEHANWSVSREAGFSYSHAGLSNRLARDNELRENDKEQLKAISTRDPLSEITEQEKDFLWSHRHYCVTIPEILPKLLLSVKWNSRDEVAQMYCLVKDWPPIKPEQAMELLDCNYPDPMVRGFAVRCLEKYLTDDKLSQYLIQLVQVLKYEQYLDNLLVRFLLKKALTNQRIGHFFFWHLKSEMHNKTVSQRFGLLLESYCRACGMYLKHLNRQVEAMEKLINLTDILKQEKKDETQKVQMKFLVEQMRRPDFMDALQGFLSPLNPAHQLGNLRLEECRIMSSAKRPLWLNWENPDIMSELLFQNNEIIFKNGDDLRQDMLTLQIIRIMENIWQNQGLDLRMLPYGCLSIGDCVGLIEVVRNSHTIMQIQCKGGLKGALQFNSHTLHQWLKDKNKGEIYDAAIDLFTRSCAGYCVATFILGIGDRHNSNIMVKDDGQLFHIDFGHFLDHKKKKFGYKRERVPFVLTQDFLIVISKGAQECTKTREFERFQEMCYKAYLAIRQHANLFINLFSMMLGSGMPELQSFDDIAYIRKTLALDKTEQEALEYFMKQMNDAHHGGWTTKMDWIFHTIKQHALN
KRAS-PI3Kα interaction (KRAS-Q25A binding to avi-tagged full length PI3Kα), sequence (P27986 whole entry partner, looked up): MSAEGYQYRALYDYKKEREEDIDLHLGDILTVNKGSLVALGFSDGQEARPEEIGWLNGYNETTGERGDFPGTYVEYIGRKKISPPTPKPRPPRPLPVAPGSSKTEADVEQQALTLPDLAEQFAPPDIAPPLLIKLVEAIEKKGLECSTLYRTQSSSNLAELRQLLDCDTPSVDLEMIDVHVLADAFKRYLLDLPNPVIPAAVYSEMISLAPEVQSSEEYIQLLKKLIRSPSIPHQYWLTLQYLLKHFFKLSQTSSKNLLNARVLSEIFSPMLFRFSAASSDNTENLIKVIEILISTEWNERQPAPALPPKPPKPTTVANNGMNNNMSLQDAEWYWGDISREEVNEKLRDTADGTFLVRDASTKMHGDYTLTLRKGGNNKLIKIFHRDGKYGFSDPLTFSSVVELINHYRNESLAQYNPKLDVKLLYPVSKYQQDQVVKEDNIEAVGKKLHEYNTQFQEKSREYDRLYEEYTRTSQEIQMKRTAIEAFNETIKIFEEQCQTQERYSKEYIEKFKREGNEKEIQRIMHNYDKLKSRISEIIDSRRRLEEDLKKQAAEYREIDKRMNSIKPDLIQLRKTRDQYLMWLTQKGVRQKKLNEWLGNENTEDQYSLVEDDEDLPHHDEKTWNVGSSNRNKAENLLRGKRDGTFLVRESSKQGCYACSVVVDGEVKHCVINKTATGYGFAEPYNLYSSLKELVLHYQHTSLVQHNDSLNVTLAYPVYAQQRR
Experimental: SPR binding experiments were collected on a Biacore 8K Instrument (Cytiva). Neutravidin (Pierce) was amine coupled to the carboxymethylated dextran surface of a CM5 sensor chip (Cytiva) using standard amine coupling chemistry. The CM5 chip surface was first activated with 0.1 M N-hydroxy succinimide and 0.4 M N-ethyl-N′-(3-dimethyl aminopropyl) carbodiimide at a flow rate of 20 μL/min using 20 mM HEPES pH 7.4, 150 mM NaCl as the running buffer. Next, neutravidin was diluted to 20 μg/mL in 10 mM sodium acetate (pH 4.5) and injected on all flow cells until a density of approximately 10,000 response units (RU) was immobilized. Activated amine groups were quenched with an injection of 1 M ethanolamine (pH 8.0). 300-500 RU of avi-tagged full length PI3Kα was captured on all flow cells in 20 mM HEPES pH 7.4, 150 mM NaCl, 5 mM MgCl2, 1 mM TCEP, 0.05% tween 20, 5% DMSO buffer. KRAS-Q25A at 20 μM was mixed with 8 concentrations of compound (50 nM-100 μM) and injected over the full-length PI3Kα at 30 μL/min and 25° C. Steady-state levels of KRAS binding were recorded and fit with a 4-parameter inhibition model to determine the IC50 values.

[2] = system: pAKT in Tet-on KRAS G12D HeLa cells; experiment: Cell-based pAKT HTRF assay in Tet-on KRAS G12D HeLa cells; conditions: read-out: pAKT inhibition IC50 in Tet-on KRAS G12D HeLa cells
Experimental: To determine the effectiveness of compounds in disrupting PIK3CA/KRAS signaling in cells, we implemented pAKT HTRF assay (Perkin-Elmer) in Tet-on KRAS G12D HeLa cells.
On Day 1, cells were seeded into 96-well plates at 2×10^4 cells/well in complete growth media (DMEM, 10% Tet-Screened FBS) supplemented with 200 ng/mL doxycycline.
On Day 2, cells were treated with compounds at 0.25% DMSO. The source plate was created with compounds diluted in media at 5-fold the final assay concentration. The compounds are run in a 9-point concentration curve starting at 75 μM, with a 3-fold dilution between concentrations. […] 20 μL was transferred onto the cell plates (final volume in wells was 100 μL). Plates were harvested after 30 min and 4 hr incubation by aspirating media and adding kit-supplied 1× supplemented lysis buffer to all wells (50 μL per well). This then changed to 4 hr only when compounds became covalent. Plates were then placed on a plate shaker and incubated at 850 rpm for an additional 30 min. The antibody mixture solution was prepared by diluting aliquoted d2 and Eu Cryptate antibodies 1:20 in kit supplied detection buffer, then mixed the diluted antibodies solutions (1:1 v:v). 4 μL of this solution was then added to a 384-well detection plate (Perkin Elmer; 6008230). Samples were homogenized by pipetting up and down and then transferred (16 μL of cell lysates) from the 96-well cell culture plate to two wells of the HTRF 384-well detection plate containing the antibody solution. Plates were centrifuged (524 g for 1 min) and allowed to incubate between 4 and 24 h at room temperature. The maximum signal is reached after 4 h incubation time and remains stable over a period of 24 hours. Therefore, readings can be made between 4 and 24 h of incubation. Plates were centrifuged again (524 g for 1 min), and analyzed on the EnVision plate reader using the following settings: Excitation 320 nm, Bandwidth […]; Emission 615 nm, Bandwidth […], Gain 100%, Flashes 100, Lag 60 μs.

pAKT in BT474 cells = experiment: Cell-based pAKT HTRF assay in BT474 cells; conditions: BT474 cells, 4 hr incubation, Compounds 10-999, read-out: pAKT inhibition IC50 in BT474 cells
Method in brief: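 Cells grown in DMEM with 10% FBS were exposed to compounds for 4 hr in 0.25% DMSO, using a 9-point, 3-fold dilution series that starts at 3 μM. Lysates were incubated with d2 and Eu Cryptate antibodies for 4–24 h at room temperature, and HTRF was read at 615 nm emission.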

[3] = biological target: Cys242 in human PIK3CA (157-299) (Homo sapiens (Human), UniProt P42336); experiment: Covalent modification assay using MALDI-TOF MS; assay type: biochemical; conditions: 4 h reaction time point; 3.33 μM protein target, 1:7.5 protein to compound ratio (compounds 1-852)
Cys242 in human PIK3CA (157-299), sequence (P42336 157-299): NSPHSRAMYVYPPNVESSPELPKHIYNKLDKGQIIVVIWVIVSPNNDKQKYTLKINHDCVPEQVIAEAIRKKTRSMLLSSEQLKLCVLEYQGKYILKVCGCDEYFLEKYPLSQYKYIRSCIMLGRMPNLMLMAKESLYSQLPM
Method in brief: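 PIK3CA (157-299) at 3.33 μM or 1 μM in 20 mM HEPES, 150 mM NaCl, 2 mM MgCl2, pH 7.3 was incubated with compound (from 10 mM DMSO stocks) in the dark at room temperature for 15 min, 30 min, 2 h or 4 h. Linear-mode MALDI-TOF peak heights gave percent modification.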

Row | Compound | pIC50 [1] | pIC50 ([2]; Tet-on KRAS G12D HeLa cells) | pIC50 (pAKT in BT474 cells) | % of modification [3] | pIC50 ([2]; Homo sapiens, HeLa) | pIC50 (pAKT in BT474 cells; Homo sapiens, BT-474)
1 | COCCOc1cc(F)ccc1-c1c(-c2cccc(CNC(=O)C(C)C)c2)nc(-c2ccc3c(c2)CCNC3)c2ccsc12 [compound 10] | > 5.30 | 5.00 to 6.00 | 5.52 to 6.00 | – | – | –
2 | C=CC(=O)N1CCC(n2cc(-c3nc(-c4ccc5c(c4)CCNC5)c4ccsc4c3-c3ccc(F)cc3OCCOC)cn2)CC1 [compound 30] | 4.60 to 5.30 | > 6.00 | – | A (percent of modification of PIK3CA protein ≥75%) | – | –
3 | C=CC(=O)NCc1cccc(-c2nc(-c3ccc4c(c3)CCNC4)c3ccsc3c2-c2ccc(F)cc2OCCOC)c1 [Compound 11, N-[[3-[7-[4-fluoro-2-(2-methoxyethoxy)phenyl]-4-(1,2,3,4-tetrahydroisoquinolin-6-yl)thieno[3,2-c]pyridin-6-yl]phenyl]methyl]prop-2-enamide] | > 5.30 | – | – | C (25%≤percent of modification <50%) | 5.00 to 6.00 | –
4 | C=CC(=O)NCc1cccc(-c2nc(-c3ccc4c(c3)CCNC4)c3c(c2-c2ccccc2OCCOC)CCC3)c1 [Compound 1, N-(3-(4-(2-(2-methoxvethoxy)phenyl)-1-(1,2,3,4-tetrahydroisoquinolin-6-yl)-6,7-dihydro-5H-cyclopenta[c]pyridin-3-yl)benzyl)acrylamide] | 4.60 to 5.30 | 5.00 to 6.00 | – | D (percent of modification <25%) | – | –
5 | C=CC(=O)N1CCC(n2cc(-c3nc(-c4ccc5c(c4)CCN(C)C5)c4ccsc4c3-c3ccc(F)cc3OCCOC)cn2)C1 (stereo not drawn) [compound 43] | 4.60 to 5.30 | > 6.00 | – | A (percent of modification of PIK3CA protein ≥75%) | – | –
6 | C=CC(=O)Nc1ccc2nc(-c3nc(-c4ccc5c(c4)CCNC5)c4ccsc4c3-c3ccc(F)cc3OCCOC)[nH]c2c1 [Compound 23, N-[2-[7-[4-fluoro-2-(2-methoxyethoxy)phenyl]-4-(1,2,3,4-tetrahydroisoquinolin-6-yl)thieno[3,2-c]pyridin-6-yl]-3H-benzimidazol-5-yl]prop-2-enamide] | < 4.60 | – | – | A (percent of modification of PIK3CA protein ≥75%) | – | 5.52 to 6.00
7 | C=CC(=O)NC1CC(n2cc(-c3nc(-c4ccc5c(c4)CCNC5)c4ccsc4c3-c3ccc(F)cc3OCCOC)cn2)C1 (stereo not drawn) [compound 55] | 4.60 to 5.30 | – | 6.00 to 7.00 | A (percent of modification of PIK3CA protein ≥75%) | – | –
8 | COCCOc1cc(F)ccc1-c1c(-c2cnn(CCC(=O)NC(C)(C)C)c2)nc(-c2ccc3c(c2)CCNC3)c2ccsc12 [compound 41] | 4.60 to 5.30 | 5.00 to 6.00 | – | – | – | –
9 | C=CC(=O)Nc1cccc(-c2nc(-c3ccc4c(c3)CCN(C)C4)c3ccsc3c2-c2ccc(F)cc2OCCOC)c1 [compound 32] | 4.60 to 5.30 | > 6.00 | – | A (percent of modification of PIK3CA protein ≥75%) | – | –
10 | C=CC(=O)N1CC(Cn2cc(-c3nc(-c4ccc5c(c4)CCNC5)c4ccsc4c3-c3ccc(F)cc3OCCOC)cn2)C1 [compound 48] | 4.60 to 5.30 | > 6.00 | – | – | – | –
11 | CCC(=O)NCc1cccc(-c2nc(-c3ccc4c(c3)CCNC4)c3ccsc3c2-c2ccc(F)cc2OCCOC)c1 [compound 9] | 4.60 to 5.30 | 5.00 to 6.00 | – | – | – | –
12 | C=CC(=O)N1CC[C@H](n2cc(-c3nc(-c4ccc5c(c4)CNC(=O)C5)c4ccsc4c3-c3ccc(F)cc3OCCOC)cn2)C1 [compound 54] | 4.60 to 5.30 | – | > 7.00 | A (percent of modification of PIK3CA protein ≥75%) | – | –
13 | COCCOc1cc(F)ccc1-c1c(-c2cccc(CNC(=O)C(C)C)c2)nc(-c2ccc3c(c2)CCNC3)c2ccsc12 [compound 14] | 4.60 to 5.30 | < 5.00 | – | – | – | –
14 | COCCOc1cc(F)ccc1-c1c(-c2cccc(CN)c2)nc(-c2ccc3c(c2)CCNC3)c2ccsc12 [compound 16] | 4.60 to 5.30 | 5.00 to 6.00 | – | – | – | –
15 | Fc1ccc(-c2c(-c3ccccc3)nc(-c3ccc4c(c3)CCNC4)c3ccsc23)c(OCc2ncccc2F)c1 [compound 7] | 4.60 to 5.30 | 5.00 to 6.00 | – | – | – | –
16 | C=CC(=O)N1CCC(n2cc(-c3nc(-c4ccc5c(c4)CNC(=O)C5)c4ccsc4c3-c3ccc(F)cc3OCCOC)cn2)CC1 [compound 50] | 4.60 to 5.30 | – | > 7.00 | A (percent of modification of PIK3CA protein ≥75%) | – | –
17 | COCCOc1cc(F)ccc1-c1c(-c2cccc(C(=O)N3CCCC3)c2)nc(-c2ccc3c(c2)CCNC3)c2ccsc12 [compound 15] | > 5.30 | 5.00 to 6.00 | – | – | – | –
18 | COCCOc1cc(F)ccc1-c1c(-c2cccc(C(=O)NC(C)C)c2)nc(-c2ccc3c(c2)CCNC3)c2ccsc12 [compound 17] | 4.60 to 5.30 | 5.00 to 6.00 | – | – | – | –
19 | COCCOc1cc(F)ccc1-c1c(-c2cnn(CC(C)(C)C)c2)nc(-c2ccc3c(c2)CCNC3)c2ccsc12 [compound 13] | 4.60 to 5.30 | 5.00 to 6.00 | – | – | – | –
20 | COCCOc1cc(F)ccc1-c1c(-c2cccc(CNC(=O)C(C)(C)C)c2)nc(-c2ccc3c(c2)CCNC3)c2ccsc12 [compound 18] | > 5.30 | 5.00 to 6.00 | – | – | – | –
21 | COCCOc1cc(F)ccc1-c1c(-c2cccc(C#N)c2)nc(-c2ccc3c(c2)CCNC3)c2ccsc12 [Compound 8] | < 4.60 | < 5.00 | – | – | – | –
22 | C=CC(=O)NCCc1cccc(-c2nc(-c3ccc4c(c3)CCNC4)c3ccsc3c2-c2ccc(F)cc2OCCOC)c1 [compound 40] | > 5.30 | 5.00 to 6.00 | – | A (percent of modification of PIK3CA protein ≥75%) | – | –
23 | C=CC(=O)N1CC[C@@H](n2cc(-c3nc(-c4ccc5c(c4)CCNC5)c4ccsc4c3-c3ccc(F)cc3OCCOC)cn2)C1 [compound 46] | 4.60 to 5.30 | > 6.00 | – | A (percent of modification of PIK3CA protein ≥75%) | – | –
24 | COCCOc1ccccc1-c1c(-c2cccc(Cl)c2)nc(-c2ccc3c(c2)CCNC3)c2ccsc12 [compound 6] | 4.60 to 5.30 | 5.00 to 6.00 | – | – | – | –
25 | COCCOc1cc(F)ccc1-c1c(-c2cccc(NC(=O)C(C)C)c2)nc(-c2ccc3c(c2)CCNC3)c2ccsc12 [compound 33] | > 5.30 | 5.00 to 6.00 | – | – | – | –
26 | COCCOc1cc(F)ccc1-c1c(-c2cccc(CNC(=O)CC(C)(C)C)c2)nc(-c2ccc3c(c2)CCNC3)c2ccsc12 [compound 19] | > 5.30 | < 5.00 | – | – | – | –
27 | C=CC(=O)Nc1cccc(-c2nc(-c3ccc4c(c3)CCC(N(C)C)C4)c3ccsc3c2-c2ccc(F)cc2OCCOC)c1 (stereo not drawn) [compound 36] | > 5.30 | 5.00 to 6.00 | – | A (percent of modification of PIK3CA protein ≥75%) | – | –
28 | CCC(=O)Nc1cccc(-c2nc(-c3ccc4c(c3)CCNC4)c3ccsc3c2-c2ccc(F)cc2OCCOC)c1 [compound 29] | > 5.30 | 5.00 to 6.00 | – | – | – | –
